Measurements: paper PMC12204359, “Mechanistic Design of Cell-Penetrating Disruptors for a Phospho-Dependent Interaction” (Research Square, 2025)
Numbering of substitutions follows the chain as printed. Positions of bridges follow the written chain, without caps; N, C: chain ends. Non-standard residues stand in square brackets, D forms with d. Residues, ends and D or L forms follow the SMILES beside them. *: point of attachment. 5FAM = O=C1OC2(c3ccc(O)cc3Oc3cc(O)ccc32)c2ccc(C(=O)*)cc21; 6FAM = O=C1OC2(c3ccc(O)cc3Oc3cc(O)ccc32)c2cc(C(=O)*)ccc21; S5 = C=CCCC[C@](C)(N)C(=O)O

Tests used:
HeLa cells [1] = conditions: live HeLa cells, SiR-tubulin, 5 μM peptide, 4 h pre-incubation, imaged 10 h every 5 min; 246–297 mitotic events over 3 imaging sessions
Procedure: HeLa, MDA-MB-468 and MDA-MB-231 cells were plated in a 35 mm imaging dish (Ibidi) in complete growth medium. Prior to imaging, the DMEM or RPMI growth medium was replaced with Optimem medium (Gibco) supplemented with 10% FBS. Added to the medium was SiR-tubulin (Spirochrome) at 30 nM concentration, SPY555-DNA at 1:18000 dilution; both live-cell imaging probes were used at lower than recommended concentrations to avoid possible effects on mitosis. […] The Lattice Lightsheet 7 microscope was fitted with a 10x/0.4NA water immersion illumination lens, a 48x/1.0NA detection lens and a PCO.edge 4.2 sCMOS camera. Each field of view of approximately 500 μm × 297 μm × 33 μm was imaged at 0.2 μm lightsheet interval with the 640 nm channel (15 ms exposure, 15% laser power) and 561 nm channel (15 ms exposure, 10% laser power) over a 10 h period with scans taken every 5 min. To create movies and frame sequences the cell were imaged every 2.5 min for 5 h. Results were processed using Zeiss LLS software and Fiji (v.2.9.0).

HeLa cells [2] = test: Confocal microscopy of fixed HeLa cells (peptide localisation, endogenous TACC3 and CHC on mitotic spindle); format: cell-based
Procedure: HeLa cells grown on glass coverslips in complete growth medium and treated with 2.5, 5 and 10 μM FAM-peptides for 5 h. Cells were washed with PBS and fixed with PTEMF (20 mM PIPES, pH 6.8, 10 mM EGTA, 1 mM MgCl2, 0.2% Triton X-100 and 4% paraformaldehyde) for 10 min and permeabilized at room temperature in 0.5% Triton-X100 in PBS for 10 min. Cells were blocked in 3% BSA in PBS for 1 h and incubated overnight with primary antibodies diluted in 3% BSA/PBS buffer followed by 1 h incubation with secondary antibodies. Primary antibodies were as follows: mouse anti-CHC (X22; GTX22731; 1:250), rabbit anti-TACC3 (ab134154, Abcam; 1:500). Secondary antibodies were anti-mouse IgG Atto 594 (1:250, 76085, Merck) and anti-rabbit IgG Atto 647N antibody (1:250, 40839, Merck). Coverslips were mounted with ProLong Gold antifade reagent with DAPI (Invitrogen). Peptides were imaged using their 6-FAM fluorescent tag with a 488 nm argon laser. Imaging was performed on a Zeiss LSM880 upright confocal microscope using a 40x/1.4 NA oil objective. Z-stacks comprising of 9–13 × 1 μm sections were acquired. Images were captured using identical settings. The region of interest (~0.6 μm^2) was quantified in three different locations over the spindle, cytoplasm and in the non-cell region of background. Images were analysed using Fiji (v.2.9.0).

[3] = molecular target: T1, biotinylated Avi-tagged ankle region of clathrin (aa 358–574) (Homo sapiens, UniProt Q00610); test: SPR binding kinetics; conditions: Biacore 1K+, average ± SD of duplicates; for kon: CHC aa 358–574 on SA chip, 60 s injection, read-out: ka (SPR)
T1 construct: The biotinylated Avi-tagged ankle region of clathrin (aa 358–574) was immobilised; made in house
T1 sequence (Q00610 358-574 limits assumed): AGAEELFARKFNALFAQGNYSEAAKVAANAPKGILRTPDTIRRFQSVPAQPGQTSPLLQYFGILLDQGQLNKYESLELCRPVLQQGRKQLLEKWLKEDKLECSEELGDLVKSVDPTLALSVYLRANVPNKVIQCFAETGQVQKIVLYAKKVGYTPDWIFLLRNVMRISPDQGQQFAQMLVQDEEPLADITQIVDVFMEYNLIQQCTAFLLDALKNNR
Procedure: The SPR assays were performed using a Biacore 1K+ instrument (Cytiva Life Sciences). The biotinylated Avi-tagged ankle region of clathrin (aa 358–574) was immobilised on the surface of a Streptavidin SA chip (Cytiva Life Sciences) to the density of 150 RU. The increasing concentrations of peptide analytes were diluted in the running buffer (20 mM HEPES pH 7.5, 150 mM NaCl, 5 mM DTT, 0.05% Tween-20) and injected at a flow rate of 30 μL/min). […] Each concentration was injected at 30 μL/min for 60 s. […] The Biacore evaluation software was used to calculate equilibrium KD values as well as ka and kd constants using 1:1 steady-state affinity model implemented into the BIAevaluation 3.0 software.

[4] = molecular target: T2, CHC^ankle (clathrin heavy chain aa 358–574) (Homo sapiens, UniProt Q00610); test: Fluorescence polarisation direct binding assay, CHC ankle WT
T2 construct: we used the minimal ankle region of CHC (CHC^ankle, aa 358–574); GST (TEV-cleavable); made in house
T2 sequence (Q00610 358-574): T1 sequence (Q00610 358-574 limits assumed)
Procedure: (§1) Binding affinity of CHC and TACC3 peptides was calculated based on fluorescence polarization assays performed as reported previously, using linear and stapled FAM-TACC3 peptides corresponding to aa 549–570 of human TACC3 protein. Linear peptides were purchased from PPR (Fareham, UK); Alta Bioscience (Redditch, UK); Biomatik Corporation (Ontario, Canada). Stock solutions of peptides were 10 mM in DMSO. Binding assays were performed in triplicate in the binding buffer 20 mM HEPES pH 7.5, 150 mM NaCl, 5 mM DTT, 0.05% Tween-20. Data analysis was performed using a one-site specific binding model in Prism (GraphPad software, v10.1.0).

K507A-CHC^ankle = molecular target: T3, K507A-CHC^ankle (Homo sapiens, UniProt Q00610, K507A); test: Fluorescence polarisation direct binding assay, K507A-CHC ankle; conditions: direct binding FP, FAM labelled peptides; CHC with K507A substitution; mean of three experiments ± SD; read-out: KD, stapled and control peptides, CHC K507A
T3 construct: we used the minimal ankle region of CHC (CHC^ankle, aa 358–574); GST (TEV-cleavable); made in house
T3 sequence (Q00610 358-574 K507A): T1 sequence (Q00610 358-574 limits assumed) with K150A
Text: CHC constructs for binding studies were produced during previous work by cloning the respective CHC coding sequence of Q00610 (CLH1_HUMAN) aa 1–574 and 358–574, respectively) into a modified pGEX vector containing a TEV-cleavable GST tag[26]. Point mutations K506A and K507A were introduced by site-directed mutagenesis. GB1-TACC3 is the small protein GB1[47] fused to a short, disordered peptide sequence from human TACC3 (Q9Y6A5, aa 545–573). This hybrid sequence was cloned into a pETM6T1 vector which contains a TEV protease-cleavable N-terminal His-NusA tag.
as §1

CC(C)C[C@H](NC(=O)[C@H](C)NC(=O)[C@@H]1CCCN1C(=O)[C@H](CC(=O)O)NC(=O)[C@H](C)NC(=O)[C@H](CCC(=O)O)NC(=O)[C@]1(C)CCCC=CCCC[C@](C)(NC(=O)[C@H](CCCCN)NC(=O)[C@H](CCCNC(=N)N)NC(=O)[C@H](CC(C)C)NC(=O)[C@H](C)NC(=O)[C@H](CO)NC(=O)[C@H](CCC(=O)O)NC(=O)[C@H](CCCCN)NC(=O)c2ccc3c(c2)C2(OC3=O)c3ccc(O)cc3Oc3cc(O)ccc32)C(=O)N[C@@H](CCC(=O)O)C(=O)N[C@@H](CC(C)C)C(=O)N[C@@H](CC(C)C)C(=O)N1)C(=O)N[C@@H](CCCNC(=N)N)C(=O)N[C@@H](CC(=O)O)C(=O)N[C@@H](CO)C(N)=O [Neg. control SP TACC3] (6FAM-KESALRK[S5]ELL[S5]EADPALRDS-NH2; staple 8-12)
median duration of mitosis from NEBD to anaphase onset (HeLa cells [1]): 55 min

CC(C)C[C@H](NC(=O)[C@H](C)NC(=O)[C@H](CO)NC(=O)[C@H](CCC(=O)O)NC(=O)[C@H](CCCCN)NC(=O)c1ccc2c(c1)C(=O)OC21c2ccc(O)cc2Oc2cc(O)ccc21)C(=O)N[C@@H](CCCNC(=N)N)C(=O)N[C@@H](CCCCN)C(=O)N[C@@]1(C)CCCC=CCCC[C@@](C)(C(=O)N[C@@H](CCC(=O)O)C(=O)N[C@@H](Cc2ccccc2)C(=O)N[C@@H](CC(=O)O)C(=O)N2CCC[C@H]2C(=O)N[C@@H](CC(C)C)C(=O)N[C@@H](Cc2ccccc2)C(=O)N[C@@H](CCCNC(=N)N)C(=O)N[C@@H](CC(=O)O)C(=O)N[C@@H](CO)C(N)=O)NC(=O)[C@H](CC(C)C)NC(=O)[C@H](CC(C)C)NC(=O)[C@H](CCC(=O)O)NC1=O [Opt SP TACC3] (5FAM-KESALRK[S5]ELL[S5]EFDPLFRDS-NH2; staple 8-12)
colocalisation with endogenous TACC3 on the mitotic spindle (HeLa cells [2]; fixed mitotic HeLa cells, FAM-labelled peptides, confocal microscopy): colocalised with endogenous TACC3 on the mitotic spindle | reduction of endogenous TACC3 levels in the mitotic spindle (HeLa cells [2]; metaphase HeLa cells, peptide 2.5, 5 and 10 μM, 5 h, compared to the negative control SP TACC3 peptide): ~ 20% | kon [3]: 1.8e+06 M⁻¹ s⁻¹ | fold increase in binding affinity for CHC compared to WT / parental TACC3 sequence ([4]; compared to the WT (parental) TACC3 peptide): over a hundred-fold higher affinity

CC(C)C[C@H](NC(=O)[C@H](C)NC(=O)[C@H](CO)NC(=O)[C@H](CCC(=O)O)NC(=O)[C@H](CCCCN)NC(=O)[C@H](Cc1ccccc1)NC(=O)c1ccc2c(c1)C(=O)OC21c2ccc(O)cc2Oc2cc(O)ccc21)C(=O)N[C@@H](CCCNC(=N)N)C(=O)N[C@@H](CCCCN)C(=O)N[C@@]1(C)CCCC=CCCC[C@@](C)(C(=O)N[C@@H](CCCCN)C(=O)N[C@@H](Cc2ccccc2)C(=O)N[C@@H](CC(=O)O)C(=O)N2CCC[C@H]2C(=O)N[C@@H](CC(C)C)C(=O)N[C@@H](CC(C)C)C(=O)N[C@@H](CCCNC(=N)N)C(=O)N[C@@H](CC(=O)O)C(=O)N[C@@H](CO)C(N)=O)NC(=O)[C@H](Cc2ccc(O)cc2)NC(=O)[C@H](CC(C)C)NC(=O)[C@H](CCC(=O)O)NC1=O [SP4E] (5FAM-FKESALRK[S5]ELY[S5]KFDPLLRDS-NH2; staple 9-13)
Kd ([3]; CHC aa 358–574 on SA chip 150 RU, 20 mM HEPES pH 7.5, 150 mM NaCl, 5 mM DTT, 0.05% Tween-20, 30 μL/min): 2.8 ± 0.2 µM | kon [3]: 140000 M⁻¹ s⁻¹ | Kd (K507A-CHC^ankle): 3.7 ± 1 µM | Kd ([4]; direct binding FP, FAM labelled peptides, CHC WT (385–574), mean of three experiments ± SD, read-out: KD, stapled and control peptides, CHC WT): 34 ± 5 µM
